Results published in patent US4260613A, “Pyridoxine derivatives” (Crinos Industria Farmacobiologica S.p.A., priority 1978, dated 1981).

How the values were obtained:
Type in all cases: in vivo
rat = assay: Ulcer-causing activity, UD50 per os in the rat (gastric lesions 7 h after treatment); conditions: in words, vs 2-(4-isobutylphenyl)-propionic acid
Protocol: The ulcer-causing activity has been determined by administering the substances per os to rats which have fasted 18 hours and evaluating the presence of gastric lesions 7 hours after the treatment. The UD50 has been determined according to Litchfield and Wilcoxon (J. Pharmacol. Exp. Ther. 96, 99, 1949).

mouse = assay: Acute toxicity, LD50 per os in the mouse (sole dose, 18 h fasting); conditions: in words, vs 2-(4-isobutylphenyl)-propionic acid
Protocol: The acute toxicity has been determined by administering the substances per os in a sole dose to the mouse after 18 hours of fasting. The LD50 has been determined according to Litchfield and Wilcoxon (J. Pharmacol. Exp. Ther. 96, 99, 1949).

[1] = test system: caraganin-edema, normal rat; assay: Caraganin-edema test according to Winter et al in the normal rat (anti-inflammatory activity); conditions: 25 mg/kg per os, 3hrs, vs controls
Protocol: Caraganin-edema test according to Winter et al (Proc. Soc. Exp. Biol. Med., 111, 544, 1962) in the normal rat. The anti-inflammatory activity is expressed as a percentage of inhibition, after 3 and 6 hours, with respect to the controls.

| SMILES | ulcer-causing activity with respect to the free acid (rat) | toxicity with respect to the free acid (mouse) | ANTI-INFLAMMATORY Inhibition % [1] |
| --- | --- | --- | --- |
| Cc1ncc(COC(=O)C(C)c2ccc(CC(C)C)cc2)c(CO)c1O (centres unmarked) [2-(4-isobutyl-phenyl)-propionic pyridoxine 5-ester] | lower toxicity and ulcer-causing activity | lower toxicity | 43.6% |
| Cc1ncc(COC(=O)C(C)c2ccc(CC(C)C)cc2)c2c1OC(C)(C)OC2 (centres unmarked) [2-(4-isobutylphenyl)-propionic isopropylidene-pyridoxine 5-ester] | lower toxicity and ulcer-causing activity | lower toxicity |  |
